Counter-ions that a name gives are not always drawn.
Molecular target: T1, rhesus (Macacca Mulatta) H3 receptor (Macaca mulatta, UniProt Q865E1)
T1 construct: pcDNA5/FRT/TO (Invitrogen) containing the rhesus monkey (Macacca Mulatta) 445 amino acid H3 receptor
Assay: Rhesus H3 radioligand binding assay ([3H]-Methylhistamine displacement, WGA SPA beads)
Parameters: species or system rhesus monkey (Macacca Mulatta)
Conditions: [3H]-Methylhistamine 2 nM, rhesus H3 membranes, 25° C., 1 hour; Cheng-Prusoff
Protocol: Rhesus H3 membranes were prepared from the Flp-In T-REx 293 Cell Line (Invitrogen) stably transfected with pcDNA5/FRT/TO (Invitrogen) containing the rhesus monkey (Macacca Mulatta) 445 amino acid H3 receptor. (Genbank #AY231164). Stably transfected cultures were amplified in tissue culture flasks by standard tissue culture methods and induced to express rhesus H3 by exposure to 500 ng/ml tetracycline (Cellgro) for 24 hours. After induction, cells were dissociated from flasks utilizing Cell Stripper (Cellgro). Cells were centrifuged (1 K×g, 5 min) and pellet frozen in an ethanol-dry ice bath to disrupt cell membranes. Frozen cell pellet was re-suspended in 5 mM HEPES (pH 7.4, Invitrogen) at 10ml/1000 cm2 of harvested cells. The cell suspension was drawn through an 18 gauge needle (2-3×) followed by a 23 gauge needle (2-3×) to further disrupt cell membranes. The cell suspension was centrifuged (40K×g, 30 min). Cell membrane pellet was re-suspended in 5 mM HEPES (pH 7.4, Invitrogen) at a final protein concentration of 10 mg/ml. Rhesus H3 membranes were stored under liquid nitrogen prior to use in [3H]-Methylhistamine and GTPγS radioligand binding assays.
Rhesus H3 radioligand binding assay was performed using rhesus H3 receptor membranes (prepared as described above), [3H]-Methylhistamine (Perkin Elmer) and WGA SPA beads (wheat germ agglutinin scintillation proximity assay) beads (Amersham). The assay was performed in 96-well Opti-Plates (Packard). Each reaction contained 50 μl rhesus H3 membranes (20-30 μg total protein), 50 μl WGA SPA beads (0.1 μg) and 50 μl of 83Ci/mmol [^3H]-Methylhistamine (final concentration 2 nM) and 50 μl of tested compound. The compounds of this invention and/or vehicle were diluted with binding buffer from 10 mM DMSO stocks. Assay plates were sealed with TopSeal (Perkin Elmer) and mixed on shaker (25° C., 1 hour). Assay plates were read on TopCount scintillation counter (Packard). Results were analyzed by Hill transformation and Ki values were determined by Cheng-Prusoff equation.

T1 sequence (Q865E1 1-445): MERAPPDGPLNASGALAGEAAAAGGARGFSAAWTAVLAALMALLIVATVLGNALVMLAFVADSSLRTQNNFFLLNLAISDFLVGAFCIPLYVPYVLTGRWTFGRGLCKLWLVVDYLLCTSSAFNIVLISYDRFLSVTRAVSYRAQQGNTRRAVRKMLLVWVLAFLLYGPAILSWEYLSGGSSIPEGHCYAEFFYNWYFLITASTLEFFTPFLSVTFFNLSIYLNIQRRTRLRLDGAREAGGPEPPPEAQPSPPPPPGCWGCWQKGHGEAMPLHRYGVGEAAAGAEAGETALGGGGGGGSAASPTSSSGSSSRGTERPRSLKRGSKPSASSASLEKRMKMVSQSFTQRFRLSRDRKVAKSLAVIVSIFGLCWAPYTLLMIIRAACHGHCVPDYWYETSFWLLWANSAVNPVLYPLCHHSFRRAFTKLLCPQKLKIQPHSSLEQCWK

SMILES	Ki [nM]
COc1cc(N2CC[C@H](N3CCC[C@@H]3C)C2)ccc1N1CCC2(CCCCC2)C1=O [Example 10]	2.65
C[C@H]1CCCN1[C@@H]1CCN(c2ccc(N3CCC4(CCCCC4)C3=O)c(N)c2)C1 [Example 6, 2-[2-Amino-4-((2S,3′R)-2-methyl-[1,3′]bipyrrolidinyl-1′-yl)-phenyl]-2-aza-spiro[4.5]decan-1-one trifluoro-acetic acid salt]	35.8
Cc1cc(N2CCC(N3CCC[C@@H]3C)CC2)ccc1N1CCCC2(CCCC2)C1=O [Example 2, 7-{2-Methyl-4-[4-((S)-2-methyl-pyrrolidin-1-yl)-piperidin-1-yl]-phenyl}-7-aza-spiro[4.5]decan-6-one trifluoro-acetic acid salt]	12.7
C[C@H]1CCCN1C1CCN(c2ccc(N3CCC4(CCCCC4)C3=O)c(N)c2)CC1 [Example 4, 2-{2-Amino-4-[4-((S)-2-methyl-pyrrolidin-1-yl)-piperidin-1-yl]-phenyl}-2-aza-spiro[4.5]decan-1-one trifluoro-acetate]	11.4
C[C@H]1CCCN1[C@H]1CCN(c2ccc(N3CCC4(CCCCC4)C3=O)cc2)C1 [Example 7, 2-[4-((2S,3′S)-2-Methyl-[1,3′]bipyrrolidinyl-1′-yl)-phenyl]-2-aza-spiro[4.5]decan-1-one]	6.44
Cc1cc(N2CCC(N3CCC[C@@H]3C)CC2)ccc1N1CCC2(CCC(C(=O)O)CC2)C1=O (stereo partly drawn) [Example 5, 2-{2-Methyl-4-[4-((S)-2-methyl-pyrrolidin-1-yl)-piperidin-1-yl]-phenyl}-1-oxo-2-aza-spiro[4.5]decane-8-carboxylic acid]	58
Cc1cc(N2CCC(N3CCC[C@@H]3C)CC2)ccc1N1CCC2(CCC(O)CC2)C1=O (stereo partly drawn) [Example 3, 8-Hydroxy-2-{2-methyl-4-[4-((S)-2-methyl-pyrrolidin-1-yl)-piperidin-1-yl]-phenyl}-2-aza-spiro[4.5]decan-1-one]	30.7
Cc1cc(N2CC[C@H](N3CCC[C@@H]3C)C2)ccc1N1CCC2(CCCCC2)C1=O [Example 8, 2-[2-Methyl-4-((2S,3′S)-2-methyl-[1,3]bipyrrolidinyl-1′-yl)-phenyl]-2-aza-spiro[4.5]decan-1-one]	10.6
C[C@H]1CCCN1[C@H]1CCN(c2ccc(N3CCC4(CCCCC4)C3=O)c(F)c2)C1 [Example 9, 2-[2-Fluoro-4-((2S,3′S)-2-methyl-[1,3′]bipyrrolidinyl-1′-yl)-phenyl]-2-aza-spiro[4.5]decan-1-one]	41.6
Cc1cc(N2CC[C@H](N3CCC[C@@H]3C)C2)ccc1N1CCC2(CCC(O)CC2)C1=O (single isomer, unassigned) [Example 11]	35
Cc1cc(N2CCC(N3CCC[C@@H]3C)CC2)ccc1N1CCC2(CCCCC2)C1=O [Example 1, 2-{2-Methyl-4-[4-((S)-2-methyl-pyrrolidin-1-yl)-piperidin-1-yl]-phenyl}-2-aza-spiro[4.5]decan-1-one trifluoroacetate]	0.477

Source: US20130059874A1, “SUBSTITUTED N-PHENYL SPIROLACTAM BIPYRROLIDINES, PREPARATION AND THERAPEUTIC USE THEREOF” (SANOFI, priority 2010, published 2013)
